The record followed here is publication PMC9130746, “In Vitro Activity of Peptide Antibiotics in Combination With Other Antimicrobials on Extensively Drug-Resistant Acinetobacter baumannii in the Planktonic and Biofilm Cell” (Frontiers in Pharmacology, 2022).

Format in all cases: cell-based, Acinetobacter baumannii
Assay [1] has as its system extensively drug-resistant A. baumannii isolates (biofilm cell). Put plainly: Checkerboard synergy study in the biofilm cell (FBIC). To be noted: in combination with polymyxins. Here is the method:
The checkerboard method, the fractional inhibitory concentration index (FICI), and the fractional biofilm inhibitory concentration index (FBIC) evaluated the synergistic effects of five peptide antibiotics combined with one of the five antimicrobials in the planktonic and biofilm cells among the nine XDRAB isolates. The planktonic cells were investigated by adding 170 µl of MHB and 10 µl of bacterial suspension (1.5 × 10^8 CFU/ml) into the 96 well plates. It was followed by adding 10 µl of serially diluted peptide antibiotics along the x-axis and antimicrobials along the y-axis. The biofilm cells were studied by cultivating the bacteria to form the biofilm into a 96-well plate (NEST TC, 701001, www.cell-nest.com) and washed with 200 µl of PBS three times. The following steps were consistent with the planktonic study. The value of OD600 was measured after incubating at 37°C for 20 h. The FICI and FBIC were evaluated as follows: Synergy between the two drugs was defined as either a FICI or an FBIC of ≤0.5, >0.5–1 for additivity, >1–2 for indifference, and >2 for antagonism ([Kim et al., 2015]; [Peng et al., 2020]; [Lin et al., 2021]).

The subject of assay [2] is extensively drug-resistant A. baumannii clinical isolates (planktonic cell). Put plainly: microbe, parasite or virus in culture. To be noted: for MIC: Acinetobacter baumannii, planktonic, broth microdilution, CAMHB, 37°C 16–20 h, OD600, read-out: MIC. The text has this: (§1) Nine XDRAB strains were isolated from clinical specimens such as the septum, urine, or respiratory lavage fluid of patients from the respiratory intensive care unit, intensive care unit, the cardiothoracic surgery department, and the neurology department at the First Affiliated Hospital of Chengdu Medical College during the period from 2018 to 2020 (Chengdu, Sichuan, China). In addition, A. baumannii ATCC 19606, Staphylococcus aureus ATCC 29213, and Escherichia coli ATCC 25922 were used as quality control strains in antimicrobial susceptibility testing (AST) and obtained from the American Type Culture Collection (ATCC, Manassas, VA, United States).
The minimum inhibitory concentrations (MICs) were determined by the broth microdilution method for the antibacterial agents and peptide antibiotics for A. baumannii based on the guidelines provided by the Clinical and Laboratory Standards Institute (CLSI) ([Humphries et al., 2021]). Briefly, bacterial cells were inoculated in Luria–Bertani agar medium at 37°C for 16–20 h, and then resuspended in saline (0.9% sodium chloride) to adjust the bacterial content to reach the 0.5 McFarland turbidity standard, followed by a 20-fold dilution. Antimicrobial solutions were prepared according to the CLSI ([Humphries et al., 2021]). Finally, 180 μl CAMHB, 10 µl corresponding antimicrobials, and 10 µl bacterial resuspension were added into 96-well plate (NEST TC, 701001, www.cell-nest.com). The value of OD600 was measured after incubating at 37°C for 16–20 h.
Background: Dilution methods test growth across graded concentrations, often in twofold steps.

Assay [3] has as its system extensively drug-resistant A. baumannii clinical isolates (biofilm cell). To be noted: after XDRAB biofilm formation, nine isolates.
From the text: as §1
The minimum biofilm inhibitory concentrations (MBICs) were detected using a previous study protocol ([Kart et al., 2021]) for the antibacterial agents and peptide antibiotics for A. baumannii in the biofilm cell. First, bacterial cells were inoculated in Luria–Bertani agar medium at 37°C for 16–20 h. Next, the bacterial monoclones were resuspended in saline (0.9% sodium chloride) to adjust the bacterial content to reach the 0.5 McFarland turbidity standard. Then, 190 µl TSB and 10 µl bacterial resuspension were mixed in a 96-well plate. After incubating at 37°C for 24 h, the medium was aspirated, and 200 µl PBS was added to wash three times. Finally, 190 μl MH broth medium and 10 µl corresponding antibiotics were added into 96-well plate (NEST TC, 701001, www.cell-nest.com). The optical density was measured at OD600 after incubating for 16–20 h at 37°C.

≈ marks a conversion by molar mass, not a printed value. Where two headings read alike, the source gives them in different places.

Consider `CC[C@H]1OC(=O)[C@H](C)[C@@H](O[C@H]2C[C@@](C)(OC)[C@@H](O)[C@H](C)O2)[C@H](C)[C@@H](O[C@@H]2O[C@H](C)C[C@H](N(C)C)[C@H]2O)[C@](C)(O)C[C@@H](C)CN(C)[C@H](C)[C@@H](O)[C@]1(C)O` [azithromycin], for which the “MBIC when combined with polymyxins” value in assay [1] amounted to 128 µg/mL.

As for `CN(C)c1cc(NC(=O)CNC(C)(C)C)c(O)c2c1C[C@H]1C[C@H]3[C@H](N(C)C)C(O)=C(C(N)=O)C(=O)[C@@]3(O)C(O)=C1C2=O` [Tigecycline, tigecycline], the MIC in assay [2] (isolate AB1), in assay [2] (isolate AB2), in assay [2] (isolate AB3), in assay [2] (isolate AB4), in assay [2] (isolate AB5) and in assay [2] (isolate AB6) was 1 µg/mL (≈ 1.71 µM) throughout. For the same molecule, the MIC in assay [2] (isolate AB7) is 1 µg/mL (≈ 1.71 µM); in assay [2] (isolate AB8), 1 µg/mL (≈ 1.71 µM); in assay [2] (isolate AB9), 0.5 µg/mL (≈ 0.854 µM). Further, the sensitivity rate in assay [2] (planktonic cell, nine isolates) turned out to be 100%; in assay [3] it was 11%. Also, the intermediate rate in assay [3] is listed as 67%. The same molecule displayed a resistance rate in assay [3] of 22%.
